Reference: the NIST ThermoML archive (doi:10.1021/je400159e)

What was measured:
[1] = Crystal; Adiabatic calorimetry
[2] = molar heat capacity at constant pressure; details: 101.33 kPa, Vacuum adiabatic calorimetry
[3] = Molar enthalpy of transition or fusion; details: Crystal; Adiabatic calorimetry

CCOC(=O)C(NC(C)=O)C(=O)OCC [diethyl 2-acetamidomalonate]
Details | Molar enthalpy of transition or fusion [kcal/mol] | Triple point temperature [K]
[1] | – | 368.72
[3] | 8.198 | –

[2]
Details | molar heat capacity at constant pressure [J/K/mol]
78.24 K, Crystal | 110.9
80 K, Crystal | 117.6
80.92 K, Crystal | 118.8
84.07 K, Crystal | 125.4
85 K, Crystal | 125.6
87.1 K, Crystal | 128.6
90 K, Crystal | 132.8
90.03 K, Crystal | 132.3
92.96 K, Crystal | 137.3
95 K, Crystal | 139.4
95.86 K, Crystal | 140.8
98.72 K, Crystal | 143.3
100 K, Crystal | 145.5
102.57 K, Crystal | 147.5
105 K, Crystal | 151
106.44 K, Crystal | 151.4
109.33 K, Crystal | 154.8
110 K, Crystal | 156.2
112.24 K, Crystal | 157.6
115 K, Crystal | 161
115.17 K, Crystal | 161.2
118.1 K, Crystal | 164.5
120 K, Crystal | 165.6
121.02 K, Crystal | 167.2
123.94 K, Crystal | 169.6
125 K, Crystal | 170
126.84 K, Crystal | 172.1
129.74 K, Crystal | 174.4
130 K, Crystal | 174.2
132.64 K, Crystal | 176.4
135 K, Crystal | 178.3
135.54 K, Crystal | 179.1
138.43 K, Crystal | 181.8
140 K, Crystal | 182.4
141.33 K, Crystal | 184
144.22 K, Crystal | 186.7
145 K, Crystal | 186.3
147.11 K, Crystal | 188.2
149.99 K, Crystal | 190.2
150 K, Crystal | 190.2
153.39 K, Crystal | 192.9
155 K, Crystal | 194.1
157.07 K, Crystal | 195.6
160 K, Crystal | 197.9
160.22 K, Crystal | 198.3
163.12 K, Crystal | 200.2
165 K, Crystal | 201.8
166.04 K, Crystal | 202.4
168.95 K, Crystal | 204.2
170 K, Crystal | 205.6
171.83 K, Crystal | 206.6
174.74 K, Crystal | 208.8
175 K, Crystal | 209.5
177.68 K, Crystal | 211
180 K, Crystal | 213.4
180.6 K, Crystal | 213.6
183.5 K, Crystal | 216.3
185 K, Crystal | 217.3
186.43 K, Crystal | 218.3
189.39 K, Crystal | 219.7
190 K, Crystal | 221.2
192.32 K, Crystal | 222.4
195 K, Crystal | 225.1
195.24 K, Crystal | 225
198.14 K, Crystal | 227.4
200 K, Crystal | 229
201.06 K, Crystal | 229.4
204.69 K, Crystal | 233
205 K, Crystal | 232.9
208.24 K, Crystal | 235.4
210 K, Crystal | 236.8
211.12 K, Crystal | 237.9
214.07 K, Crystal | 239.9
215 K, Crystal | 240.8
216.99 K, Crystal | 243.1
219.9 K, Crystal | 244
220 K, Crystal | 244.7
222.8 K, Crystal | 246.7
225 K, Crystal | 248.7
225.75 K, Crystal | 249.4
228.73 K, Crystal | 251.2
230 K, Crystal | 252.7
231.68 K, Crystal | 254.7
234.64 K, Crystal | 256.9
235 K, Crystal | 256.7
237.58 K, Crystal | 259.4
240 K, Crystal | 260.7
240.49 K, Crystal | 260.9
244 K, Crystal | 264.3
245 K, Crystal | 264.8
247.5 K, Crystal | 267.7
250 K, Crystal | 268.8
250.46 K, Crystal | 269.6
253.49 K, Crystal | 272.7
255 K, Crystal | 273
256.52 K, Crystal | 275
259.52 K, Crystal | 277.5
260 K, Crystal | 277.2
262.52 K, Crystal | 280.1
265 K, Crystal | 281.4
265.5 K, Crystal | 282.4
268.47 K, Crystal | 283.8
270 K, Crystal | 285.7
271.42 K, Crystal | 286.1
274.37 K, Crystal | 289.5
275 K, Crystal | 290.2
277.31 K, Crystal | 290.7
280 K, Crystal | 294.7
280.26 K, Crystal | 293.6
283.28 K, Crystal | 297.4
285 K, Crystal | 299.3
286.35 K, Crystal | 300.4
289.39 K, Crystal | 302.9
290 K, Crystal | 304.1
292.4 K, Crystal | 306.6
295 K, Crystal | 309
295.4 K, Crystal | 308.5
298.15 K, Crystal | 312.2
298.4 K, Crystal | 312
300 K, Crystal | 314.1
301.4 K, Crystal | 314.7
304.39 K, Crystal | 318.4
305 K, Crystal | 319.3
307.37 K, Crystal | 321.4
310 K, Crystal | 324.7
310.35 K, Crystal | 325.7
313.32 K, Crystal | 329.7
315 K, Crystal | 330.4
316.34 K, Crystal | 332.9
319.44 K, Crystal | 336.2
320 K, Crystal | 336.2
322.53 K, Crystal | 340.6
325 K, Crystal | 342.2
325.61 K, Crystal | 343
328.68 K, Crystal | 346.8
330 K, Crystal | 348.5
331.74 K, Crystal | 350.7
334.79 K, Crystal | 354.3
335 K, Crystal | 355
337.83 K, Crystal | 358
340 K, Crystal | 361.7
340.85 K, Crystal | 362.6
343.87 K, Crystal | 367.1
345 K, Crystal | 368.6
372.62 K, Liquid | 463.3
375 K, Liquid | 465
375.92 K, Liquid | 465.4
379.02 K, Liquid | 467.3
380 K, Liquid | 467.7
382.13 K, Liquid | 468.9
385 K, Liquid | 470.4
385.23 K, Liquid | 470.4
388.37 K, Liquid | 472.1
390 K, Liquid | 472.9
391.51 K, Liquid | 473.6
394.65 K, Liquid | 475.2
395 K, Liquid | 475.3
